Test results reported in patent US20090281114A1, “INDOLYLALKYL DERIVATIVES OF PYRIMIDINYLPIPERAZINE AND METABOLITES THEREOF FOR TREATMENT OF ANXIETY, DEPRESSION, AND SEXUAL DYSFUNCTION” (Fabre-Kramer Pharmaceuticals, Inc., priority 2008, published 2009).
Structures can show the parent of a compound that is named as a salt.

Target: 5-HT1D binding site
Experiment: 5-HT1D binding site affinity (tritiated serotonin; method of Heuring and Peroutka with minor modifications)
Details: in vitro
Experimental: Determination of 5-HT1D binding properties was accomplished employing methodology such as that described by Heuring and Peroutka, J. Neurosci., 7(3), 1987, 894-903; with only minor modifications. In vitro IC50 (nM) test values were determined for the compounds of this invention employing tritiated serotonin.

Row | SMILES | IC50
1 | CCOc1cncnc1N1CCN(CCCc2c[nH]c3ccccc23)CC1 [Example 52, 4-(5-Ethoxy-4-pyrimidinyl)-1-[3-(1H-indol-3-yl)propyl]piperazine hydrochloride hydrate] | 2 nM
2 | COc1cncnc1N1CCN(CCC(C)c2c[nH]c3ccccc23)CC1 (stereo not shown) [Example 53, 1-[3-(1H-indol-3-yl)butyl]-4-(5-methoxy-4-pyrimidinyl)piperazine] | 5 nM
3 | COc1cncnc1N1CCN(CCCc2c[nH]c3ccc(O)cc23)CC1 [Example 55, 1-[3-(5-Hydroxy-1H-indol-3-yl)propyl]-4-(5-methoxy-4-pyrimidinyl)piperazine] | 0.8 nM
4 | COc1cncnc1N1CCN(CCCc2c[nH]c3ccc(F)cc23)CC1 [Example 60, 3-(3-(4-(5-methoxy-4-pyrimidinyl)-1-piperazinyl)propyl)-5-fluoro-1H-indole hydrochloride] | 3 nM
5 | COc1cncnc1N1CCN(CCCc2c[nH]c3ccccc23)CC1C (stereo not shown) [Example 62] | 4.2 nM
6 | COc1cncnc1N1CCN(CCCc2c[nH]c3ccc(N(C)S(C)(=O)=O)cc23)CC1 [Example 65] | 4.9 nM
7 | CCS(=O)(=O)Nc1ccc2[nH]cc(CCCN3CCN(c4ncncc4OC)C(C)C3)c2c1 (stereo not shown) [Example 70, 1-[3-(5-Ethanesulfonylamino-1H-indol-3-yl)propyl]-4-(5-methoxy-4-pyrimidinyl)-3-methylpiperazine] | 17.1 nM
8 | COc1cncnc1N1CCN(CCCc2c[nH]c3ccc(OCc4ccccc4)cc23)CC1 [Example 72] | 14.3 nM
9 | COc1ccc2[nH]cc(CCCN3CCN(c4ncncc4OC)CC3)c2c1 [Example 73] | 1.1 nM
10 | COc1cncnc1N1CCN(CCCc2c[nH]c3cc(F)c(F)cc23)CC1 [Example 74] | 29 nM

Other lines, results leading:

Row | IC50 | SMILES
11 | 20.5 nM | CCC(CCc1c[nH]c2ccccc12)N1CCN(c2ncncc2OC)CC1 (stereo not shown) [Example 54, 3-[3-[4-(5-Methoxy-4-pyrimidinyl)-1-piperazinyl]pentyl]indole]
12 | 5.2 nM | COc1cncnc1N1CCN(CCCc2c[nH]c3ccc(NS(C)(=O)=O)cc23)CC1 [Example 63]
13 | 13.7 nM | CCS(=O)(=O)Nc1ccc2[nH]cc(CCCN3CCN(c4ncncc4OC)CC3)c2c1 [Example 67]
14 | 12.9 nM | CCS(=O)(=O)N(C)c1ccc2[nH]cc(CCCN3CCN(c4ncncc4OC)CC3)c2c1 [Example 68]
15 | 19.1 nM | CCS(=O)(=O)N(C)c1ccc2[nH]cc(CCCN3CCN(c4ncncc4OC)C(C)C3)c2c1 (stereo not shown) [Example 69]
16 | 2.2 nM | CCOc1ccc2[nH]cc(CCCN3CCN(c4ncncc4OC)CC3)c2c1 [Example 71]
17 | 5.1 nM | COc1cncnc1N1CCN(CCCc2c[nH]c3c(F)ccc(F)c23)CC1 [Example 75]
18 | 8.1 nM | COc1cncnc1N1CCN(CCCc2c[nH]c3c(F)cc(F)cc23)CC1 [Example 76]

System: not given
Experiment: not given
Details: not given

Row | SMILES | melting point
19 | CCCCNC(=O)c1ccc2[nH]cc(CCCN3CCN(c4ncncc4OC)CC3)c2c1.Cl | 180 to 185 °C
20 | CCS(=O)(=O)Nc1ccc2[nH]cc(CCCN3CCN(c4ncncc4OC)C(C)C3)c2c1 (stereo not shown) (as salt: HCl) (hydrate or solvate) [Example 70, 1-[3-(5-Ethanesulfonylamino-1H-indol-3-yl)propyl]-4-(5-methoxy-4-pyrimidinyl)-3-methylpiperazine] | 212 to 214 °C
21 | CCS(=O)(=O)Nc1ccc2[nH]cc(CCCN3CCN(c4ncncc4OC)CC3)c2c1 (as salt: HCl) [Example 67] | 140 to 145 °C
22 | CCS(=O)(=O)N(C)c1ccc2[nH]cc(CCCN3CCN(c4ncncc4OC)CC3)c2c1 (as salt: HCl) [Example 68] | 223 to 225 °C
23 | CCS(=O)(=O)N(C)c1ccc2[nH]cc(CCCN3CCN(c4ncncc4OC)C(C)C3)c2c1 (stereo not shown) (as salt: HCl) [Example 69] | 205 to 207 °C
24 | COc1cncnc1N1CCN(CCCc2c[nH]c3c(F)cc(F)cc23)CC1 (as salt: HCl) [Example 76] | > 250 °C (dec.)
25 | COc1cncnc1N1CCN(CCCc2c[nH]c3ccc(CNS(C)(=O)=O)cc23)CC1 (as salt: hydrochloride) (hydrate or solvate) [Example 31, 4-(5-Methoxy-4-pyrimidinyl)-1-[[5-[[(methylsulfonyl)amino]methyl]-1H-indol-3-yl]propyl]piperazine] | 204 to 206 °C
26 | COc1cncnc1N1CCN(CCC(C)c2c[nH]c3ccccc23)CC1 (stereo not shown) (as salt: hydrochloride) [Example 53, 1-[3-(1H-indol-3-yl)butyl]-4-(5-methoxy-4-pyrimidinyl)piperazine] | 169 to 172 °C (dec.)
27 | COc1cncnc1N1CCN(CCCc2c[nH]c3ccc(O)cc23)CC1 (as salt: hydrochloride) [Example 55, 1-[3-(5-Hydroxy-1H-indol-3-yl)propyl]-4-(5-methoxy-4-pyrimidinyl)piperazine] | 215 °C
28 | COc1cncnc1N1CCN(CCCc2c[nH]c3ccc(N(C)S(=O)(=O)C(F)(F)F)cc23)CC1 (as salt: salt) [Example 26, 1-[3-[5-[Methyl(trifluoromethanesulfonyl)amino]-1H-indol-3-yl]propyl]-4-(5-methoxy-4-pyrimidinyl)piperazine] | > 230 °C
29 | COc1cncnc1N1CCN(CCCc2c[nH]c3ccc(N)cc23)CC1 (as salt: salt) [Example 43, 3-[3-[4-(5-Methoxy-4-pyrimidinyl)-1-piperazinyl]propyl]-5-aminoindole] | 192 °C (dec.)
30 | COc1cncnc1N1CCN(CCCc2c[nH]c3ccc(CCS(C)(=O)=O)cc23)CC1C (stereo not shown) (as salt: salt) [Example 51, 4-(5-Methoxy-4-pyrimidinyl)-1-[3-[5-[2-(methylsulfonyl)ethyl]-1H-indol-3-yl]propyl]-3-methylpiperazine] | 220 to 223 °C
31 | CCC(CCc1c[nH]c2ccccc12)N1CCN(c2ncncc2OC)CC1 (stereo not shown) (as salt: salt) [Example 54, 3-[3-[4-(5-Methoxy-4-pyrimidinyl)-1-piperazinyl]pentyl]indole] | 145 °C (dec.)
32 | COc1cncnc1N1CCN(CCCc2c[nH]c3ccc(CNC(C)=O)cc23)CC1 (hydrate or solvate) [Example 40, 1-[[5-[[(Acetyl)amino]methyl]-1H-indol-3-yl]propyl]-4-(5-methoxy-4-pyrimidinyl)piperazine] | 169 to 174 °C
33 | CCOc1cncnc1N1CCN(CCCc2c[nH]c3ccccc23)CC1.Cl.O (hydrate or solvate) [Example 52, 4-(5-Ethoxy-4-pyrimidinyl)-1-[3-(1H-indol-3-yl)propyl]piperazine hydrochloride hydrate] | > 230 °C
34 | CCS(=O)(=O)N(C)Cc1ccc2[nH]cc(CCCN3CCN(c4ncncc4OC)CC3)c2c1 [Example 38, 4-(5-Methoxy-4-pyrimidinyl)-1-[[5-[[methyl(ethylsulfonyl)amino]-methyl]-1H-indol-3-yl]propyl]piperazine] | 113 to 115 °C
35 | COc1cncnc1N1CCN(CCCc2c[nH]c3ccc(CCS(C)(=O)=O)cc23)CC1 [Example 50, 4-(5-Methoxy-4-pyrimidinyl)-1-[3-[5-[2-(methylsulfonyl)ethyl]-1H-indol-3-yl]propyl]piperazine] | 153 to 154 °C
36 | COc1cncnc1N1CCN(CCCc2c[nH]c3cc(F)c(F)cc23)CC1 [Example 74] | 102 to 104 °C

More lines, now with the values ahead:

Row | melting point | SMILES
37 | 215 to 217 °C (dec.) | COc1cncnc1N1CCN(CCCc2c[nH]c3ccc(C(C)=O)cc23)CC1.Cl
38 | 100 to 101 °C | COc1cncnc1N1CCN(CCCc2c[nH]c3ccc(N4CCCC4=O)cc23)CC1.O=C(O)C(=O)O
39 | 180 °C (dec.) | COc1cncnc1N1CCN(CCCc2c[nH]c3ccc(OCc4ccccc4)cc23)CC1 (as salt: HCl) (hydrate or solvate) [Example 72]
40 | 185 °C (dec.) | COc1cncnc1N1CCN(CCCc2c[nH]c3ccccc23)CC1C (stereo not shown) (as salt: HCl) [Example 62]
41 | 150 to 152 °C | COc1cncnc1N1CCN(CCCc2c[nH]c3ccc(NS(C)(=O)=O)cc23)CC1 (as salt: HCl) [Example 63]
42 | 227 to 230 °C | COc1cncnc1N1CCN(CCCc2c[nH]c3ccc(N(C)S(C)(=O)=O)cc23)CC1 (as salt: HCl) [Example 65]
43 | 130 to 150 °C (dec.) | COc1ccc2[nH]cc(CCCN3CCN(c4ncncc4OC)CC3)c2c1 (as salt: HCl) [Example 73]
44 | 210 °C (dec.) | COc1cncnc1N1CCN(CCCc2c[nH]c3ccc(CS(=O)(=O)N(C)C)cc23)CC1 (as salt: hydrochloride) (hydrate or solvate) [Example 30, 1-[3-[5-[[(Dimethylamino)sulfonyl]methyl]-1H-indol-3-yl]propyl]-4-(5-methoxy-4-pyrimidinyl)piperazine]
45 | 198 to 200 °C (dec.) | COc1cncnc1N1CCN(CCCc2c[nH]c3ccc(OCC#N)cc23)CC1 (as salt: hydrochloride) [Example 45, 3-[3-[4-(5-Methoxy-4-pyrimidinyl)-1-piperazinyl]propyl]-5-(cyanomethyl)oxyindole]
46 | 119 to 122 °C | COc1cncnc1N1CCN(CCCc2c[nH]c3ccc(F)cc23)CC1 (as salt: hydrochloride) [Example 60, 3-(3-(4-(5-methoxy-4-pyrimidinyl)-1-piperazinyl)propyl)-5-fluoro-1H-indole hydrochloride]
47 | 73 to 75 °C | CCS(=O)(=O)N(Cc1ccccc1)Cc1ccc2[nH]cc(CCCN3CCN(c4ncncc4OC)CC3)c2c1 [Example 39, 4-(5-Methoxy-4-pyrimidinyl)-1-[[5-[[phenylmethyl(ethylsulfonyl)amino]-methyl]-1H-indol-3-yl]propyl]piperazine]
48 | 112 to 114 °C | CCOc1ccc2[nH]cc(CCCN3CCN(c4ncncc4OC)CC3)c2c1 [Example 71]
49 | 160 to 165 °C | COc1cncnc1N1CCN(CCCc2c[nH]c3c(F)ccc(F)c23)CC1 [Example 75]
